# Read-outs that look alike come from different tables or passages of the source.
# Columns and labels:
# [1] = pH test of impregnating solution with Hydrion test paper; settings: 0.2 molar solution
# Description: It was then allowed to float in a 0.2 molar sodium metaborate solution, absorbing it by capillary wicking. After six hours the upper surface was damp.
# [2] = from the CRC listed solubility
# Description: Following is a listing of candidate zinc salts with the properties found in the CRC handbook, 65th edition, and their stated solubilities at various temperatures, and molecular weights. The Name in each case is followed by CRC listed solubilities at stated temperatures, Molecular weight, and Molarity of saturated solution.
# [3] = Source text: Knowing the molecular weight of the product, it was possible to calculate how many moles of water were hydrated. It was thus possible to calculate the molar content of a saturated solution of the particular zinc salt, and thus to determine if is was sufficiently soluble at a low but possible processing temperature for an unheated preservative-treatment facility. […] Ten grams of the clear solution was dried overnight in a 70 C oven. […] Water has a molecular weight of 18.
# The anhydrous foamed salt was crushed and added back to the solution, as crystallization seeding.
# The washed precipitates were dried to constant weight in a 70 C oven.
# [4] = pH measurement of aqueous solutions with ion-sensitive FET pH meter; format: physicochemical; settings: water
# Description: Time was allowed for the pH reading to equilibrate after each addition. This typically took ten to thirty seconds, and increased noticeably with further additions. An Ion-Sensitive FET pH meter was used. The meter was calibrated before and after each measurement series with pH 7.0 buffer solution, and the readings corrected for any meter drift observed. The pH measurements were graphed.
# Five milliliters of a solution of pH 4.1 contains about 10^−4 moles H^+ per liter times 5/1000=5×10^−7 moles H^+. Fifteen mL of a solution of pH 7.5 contains 15/1000×10^−75 moles of H^+, or about 10^−9.3 moles H^+. Twenty milliliters of a solution of pH 6.9 contains 20/1000×10^−6.9 moles of H+, or about 10^−8.7 moles of H+.
compound,measurement,setting,value
O=B[O-].[Na+] [sodium metaborate],pH of solution by Hydrion test paper,[1],10-11 pH
O.O.O.O.O.O.O.O.O=S(=O)([O-])c1ccc(O)cc1.O=S(=O)([O-])c1ccc(O)cc1.[Zn+2] [Zinc phenol-sulfonate octahydrate],Molarity of saturated solution,[2],mol/L 1.12
O=C([O-])CC(O)C(=O)[O-].[Zn+2] (stereo not drawn) [Zinc malate],Molarity of saturated solution,[3],mol/L 0.071
same,Molarity of the saturated solution,[3],0.133 M
same,Solubility (laboratory measurement),[3],Zinc malate 1.4 g/100 ml@16 C.
Zinc mandelate,Molarity of saturated solution,[3]; from the laboratory solubility (10-16 C),mol/L 0.010
same,Solubility (laboratory measurement),"[3]; water, 14 C",Zinc mandelate 0.38 g/100 ml@14 C.
Zinc sorbate,Solubility in words,[3],so little solubility even in hot water
O=C([O-])c1ccccc1.O=C([O-])c1ccccc1.[Zn+2] [Zinc benzoate],Molarity of saturated solution,[3],mol/L 0.0117
Zinc Valerate dihydrate,Molarity of saturated solution,[2],mol/L 0.085
(ZnO) (B2O3)2,pH of a saturated solution,[4],6.7
"zinc borate [zinc borate furnished by City Chemical, reference compound]",pH of a saturated solution,[4],6.7

# Source: patent US20120148857A1, “Treated wood and methods of treatment” (priority 2010, published 2012)
